In brackets after ≈: the same amount, converted by molar mass. Activity calls are given as the source filed them. The rule behind the calls is not given here.
Legend:
Bacillus pumilus [1] = assay: Antibacterial activity against Bacillus pumilus MTCC 1456 assessed as growth inhibition at 250 ug/mL after 48 hr by agar diffusion method; format: functional; conditions: MTCC 1456, 48 h, read-out: DIZ
Pseudomonas aeruginosa [2] = assay: Antibacterial activity against Pseudomonas aeruginosa MTCC 424 assessed as growth inhibition at 100 ug/mL after 48 hr by agar diffusion method; format: functional; conditions: MTCC 424, 48 h, read-out: DIZ
Pseudomonas fluorescens [3] = assay: Antibacterial activity against Pseudomonas fluorescens MTCC 2421 assessed as growth inhibition at 1250 ug/mL after 48 hr by agar diffusion method; format: functional; conditions: MTCC 2421, 48 h, read-out: DIZ
Escherichia coli [4] = assay: Antibacterial activity against Escherichia coli MTCC 1573 assessed as growth inhibition at 500 ug/mL after 48 hr by agar diffusion method; format: functional; conditions: MTCC 1573, 48 h, read-out: DIZ
Escherichia coli [5] = assay: Antibacterial activity against Escherichia coli MTCC 1573 assessed as growth inhibition at 100 ug/mL after 48 hr by agar diffusion method; format: functional; conditions: MTCC 1573, 48 h, read-out: DIZ
Bacillus pumilus [6] = assay: Antibacterial activity against Bacillus pumilus MTCC 1456 assessed as growth inhibition at 1000 ug/mL after 48 hr by agar diffusion method; format: functional; conditions: MTCC 1456, 48 h, read-out: DIZ
Bacillus subtilis [7] = assay: Antibacterial activity against Bacillus subtilis MTCC 441 assessed as growth inhibition at 250 ug/mL after 48 hr by agar diffusion method; format: functional; conditions: MTCC 441, 48 h, read-out: DIZ
Bacillus subtilis [8] = assay: Antibacterial activity against Bacillus subtilis MTCC 441 assessed as growth inhibition at 100 ug/mL after 48 hr by agar diffusion method; format: functional; conditions: MTCC 441, 48 h, read-out: DIZ
Bacillus pumilus [9] = assay: Antibacterial activity against Bacillus pumilus MTCC 1456 assessed as growth inhibition at 100 ug/mL after 48 hr by agar diffusion method; format: functional; conditions: MTCC 1456, 48 h, read-out: DIZ
Escherichia coli [10] = assay: Antibacterial activity against Escherichia coli MTCC 1573 assessed as growth inhibition at 1000 ug/mL after 48 hr by agar diffusion method; format: functional; conditions: MTCC 1573, 48 h, read-out: DIZ
Pseudomonas aeruginosa [11] = assay: Antibacterial activity against Pseudomonas aeruginosa MTCC 424 assessed as growth inhibition after 24 hr by tube dilution method; format: functional; conditions: MTCC 424, 24 h
Micrococcus luteus [12] = assay: Antibacterial activity against Micrococcus luteus MTCC 1538 assessed as growth inhibition at 750 ug/mL after 48 hr by agar diffusion method; format: functional; conditions: MTCC 1538, 48 h, read-out: DIZ
Aspergillus niger [13] = assay: Antifungal activity against Aspergillus niger MTCC 2546 assessed as growth inhibition at 1000 ug/mL after 48 hr by agar diffusion method; format: functional; conditions: MTCC 2546, 48 h, read-out: DIZ
Staphylococcus aureus [14] = assay: Antibacterial activity against Staphylococcus aureus MTCC 1430 assessed as growth inhibition after 24 hr by tube dilution method; format: functional; conditions: MTCC 1430, 24 h
Escherichia coli [15] = assay: Antibacterial activity against Escherichia coli MTCC 1573 assessed as growth inhibition at 250 ug/mL after 48 hr by agar diffusion method; format: functional; conditions: MTCC 1573, 48 h, read-out: DIZ
Aspergillus niger [16] = assay: Antifungal activity against Aspergillus niger MTCC 2546 assessed as growth inhibition at 500 ug/mL after 48 hr by agar diffusion method; format: functional; conditions: MTCC 2546, 48 h, read-out: DIZ
Pseudomonas fluorescens [17] = assay: Antibacterial activity against Pseudomonas fluorescens MTCC 2421 assessed as growth inhibition at 500 ug/mL after 48 hr by agar diffusion method; format: functional; conditions: MTCC 2421, 48 h, read-out: DIZ
Aspergillus niger [18] = assay: Antifungal activity against Aspergillus niger MTCC 2546 assessed as growth inhibition at 750 ug/mL after 48 hr by agar diffusion method; format: functional; conditions: MTCC 2546, 48 h, read-out: DIZ
Penicillium chrysogenum [19] = assay: Antifungal activity against Penicillium chrysogenum MTCC 161 assessed as growth inhibition at 1250 ug/mL after 48 hr by agar diffusion method; format: functional; conditions: MTCC 161, 48 h, read-out: DIZ
Pseudomonas aeruginosa [20] = assay: Antibacterial activity against Pseudomonas aeruginosa MTCC 424 assessed as growth inhibition at 750 ug/mL after 48 hr by agar diffusion method; format: functional; conditions: MTCC 424, 48 h, read-out: DIZ
Pseudomonas fluorescens [21] = assay: Antibacterial activity against Pseudomonas fluorescens MTCC 2421 assessed as growth inhibition after 24 hr by tube dilution method; format: functional; conditions: MTCC 2421, 24 h
Escherichia coli [22] = assay: Antibacterial activity against Escherichia coli MTCC 1573 assessed as growth inhibition after 24 hr by tube dilution method; format: functional; conditions: MTCC 1573, 24 h
Bacillus pumilus [23] = assay: Antibacterial activity against Bacillus pumilus MTCC 1456 assessed as growth inhibition after 24 hr by tube dilution method; format: functional; conditions: MTCC 1456, 24 h
Staphylococcus aureus [24] = assay: Antibacterial activity against Staphylococcus aureus MTCC 1430 assessed as growth inhibition at 500 ug/mL after 48 hr by agar diffusion method; format: functional; conditions: MTCC 1430, 48 h, read-out: DIZ
Aspergillus niger [25] = assay: Antifungal activity against Aspergillus niger MTCC 2546 assessed as growth inhibition after 24 hr by tube dilution method; format: functional; conditions: MTCC 2546, 24 h
Bacillus subtilis [26] = assay: Antibacterial activity against Bacillus subtilis MTCC 441 assessed as growth inhibition at 1000 ug/mL after 48 hr by agar diffusion method; format: functional; conditions: MTCC 441, 48 h, read-out: DIZ
Pseudomonas fluorescens [27] = assay: Antibacterial activity against Pseudomonas fluorescens MTCC 2421 assessed as growth inhibition at 100 ug/mL after 48 hr by agar diffusion method; format: functional; conditions: MTCC 2421, 48 h, read-out: DIZ
Bacillus pumilus [28] = assay: Antibacterial activity against Bacillus pumilus MTCC 1456 assessed as growth inhibition at 1250 ug/mL after 48 hr by agar diffusion method; format: functional; conditions: MTCC 1456, 48 h, read-out: DIZ
Penicillium chrysogenum [29] = assay: Antifungal activity against Penicillium chrysogenum MTCC 161 assessed as growth inhibition after 24 hr by tube dilution method; format: functional; conditions: MTCC 161, 24 h
Penicillium chrysogenum [30] = assay: Antifungal activity against Penicillium chrysogenum MTCC 161 assessed as growth inhibition at 100 ug/mL after 48 hr by agar diffusion method; format: functional, organism-based
Aspergillus niger [31] = assay: Antifungal activity against Aspergillus niger MTCC 2546 assessed as growth inhibition at 250 ug/mL after 48 hr by agar diffusion method; format: functional
Micrococcus luteus [32] = assay: Antibacterial activity against Micrococcus luteus MTCC 1538 assessed as growth inhibition at 500 ug/mL after 48 hr by agar diffusion method; format: functional; conditions: MTCC 1538, 48 h, read-out: DIZ
Micrococcus luteus [33] = assay: Antibacterial activity against Micrococcus luteus MTCC 1538 assessed as growth inhibition at 250 ug/mL after 48 hr by agar diffusion method; format: functional
Micrococcus luteus [34] = assay: Antibacterial activity against Micrococcus luteus MTCC 1538 assessed as growth inhibition at 1250 ug/mL after 48 hr by agar diffusion method; format: functional; conditions: MTCC 1538, 48 h, read-out: DIZ
Escherichia coli [35] = assay: Antibacterial activity against Escherichia coli MTCC 1573 assessed as growth inhibition at 750 ug/mL after 48 hr by agar diffusion method; format: functional; conditions: MTCC 1573, 48 h, read-out: DIZ
Bacillus subtilis [36] = assay: Antibacterial activity against Bacillus subtilis MTCC 441 assessed as growth inhibition at 1250 ug/mL after 48 hr by agar diffusion method; format: functional; conditions: MTCC 441, 48 h, read-out: DIZ
Pseudomonas aeruginosa [37] = assay: Antibacterial activity against Pseudomonas aeruginosa MTCC 424 assessed as growth inhibition at 250 ug/mL after 48 hr by agar diffusion method; format: functional; conditions: MTCC 424, 48 h, read-out: DIZ
Micrococcus luteus [38] = assay: Antibacterial activity against Micrococcus luteus MTCC 1538 assessed as growth inhibition after 24 hr by tube dilution method; format: functional; conditions: MTCC 1538, 24 h
Bacillus pumilus [39] = assay: Antibacterial activity against Bacillus pumilus MTCC 1456 assessed as growth inhibition at 500 ug/mL after 48 hr by agar diffusion method; format: functional; conditions: MTCC 1456, 48 h, read-out: DIZ

| Compound | zone of inhibition at 250 µg/mL (Bacillus pumilus [1]) | zone of inhibition at 100 µg/mL (Pseudomonas aeruginosa [2]) | zone of inhibition at 1250 µg/mL (Pseudomonas fluorescens [3]) | zone of inhibition at 500 µg/mL (Escherichia coli [4]) | zone of inhibition at 100 µg/mL (Escherichia coli [5]) | zone of inhibition at 1000 µg/mL (Bacillus pumilus [6]) | zone of inhibition at 250 µg/mL (Bacillus subtilis [7]) | zone of inhibition at 100 µg/mL (Bacillus subtilis [8]) | zone of inhibition at 100 µg/mL (Bacillus pumilus [9]) | zone of inhibition at 1000 µg/mL (Escherichia coli [10]) | MIC (Pseudomonas aeruginosa [11]) | zone of inhibition at 750 µg/mL (Micrococcus luteus [12]) | zone of inhibition at 1000 µg/mL (Aspergillus niger [13]) | MIC (Staphylococcus aureus [14]) | zone of inhibition at 250 µg/mL (Escherichia coli [15]) | zone of inhibition at 500 µg/mL (Aspergillus niger [16]) | zone of inhibition at 500 µg/mL (Pseudomonas fluorescens [17]) | zone of inhibition at 750 µg/mL (Aspergillus niger [18]) | zone of inhibition at 1250 µg/mL (Penicillium chrysogenum [19]) | zone of inhibition at 750 µg/mL (Pseudomonas aeruginosa [20]) | further results |
| --- | --- | --- | --- | --- | --- | --- | --- | --- | --- | --- | --- | --- | --- | --- | --- | --- | --- | --- | --- | --- | --- |
| O=C1CSC(c2cccc3ccccc23)N1c1nnc2c3ccccc3nc-2s1 (stereo not drawn) | 8 mm | 7 mm | 22 mm | 12 mm | 8 mm | 20 mm | 10 mm | 8 mm | 6 mm | 15 mm | 40 mg/L (≈ 96.5 µM) | 11 mm | 15 mm | 200 mg/L (≈ 482 µM) | 10 mm | 8 mm | 14 mm | 10 mm | 15 mm | 15 mm | MIC (Pseudomonas fluorescens [21]): 40 mg/L (≈ 96.5 µM); MIC (Escherichia coli [22]): 50 mg/L (≈ 121 µM); MIC (Bacillus pumilus [23]): 20 mg/L (≈ 48.2 µM); zone of inhibition at 500 µg/mL (Staphylococcus aureus [24]): 10 mm; MIC (Aspergillus niger [25]): 250 mg/L (≈ 603 µM); zone of inhibition at 1000 µg/mL (Bacillus subtilis [26]): 17 mm; zone of inhibition at 100 µg/mL (Pseudomonas fluorescens [27]): 7 mm; zone of inhibition at 1250 µg/mL (Bacillus pumilus [28]): 26 mm; MIC (Penicillium chrysogenum [29]): 200 mg/L (≈ 482 µM); growth inhibition (GI) (Penicillium chrysogenum [30]): inactive; growth inhibition (GI) (Aspergillus niger [31]): inactive; zone of inhibition at 500 µg/mL (Micrococcus luteus [32]): 8 mm; growth inhibition (GI) (Micrococcus luteus [33]): inactive; zone of inhibition at 1250 µg/mL (Micrococcus luteus [34]): 16 mm; zone of inhibition at 750 µg/mL (Escherichia coli [35]): 13 mm; zone of inhibition at 1250 µg/mL (Bacillus subtilis [36]): 20 mm; zone of inhibition at 250 µg/mL (Pseudomonas aeruginosa [37]): 10 mm; MIC (Micrococcus luteus [38]): 250 mg/L (≈ 603 µM); zone of inhibition at 500 µg/mL (Bacillus pumilus [39]): 11 mm |
| CC1SCC(=O)N1c1nnc2c3ccccc3nc-2s1 (stereo not drawn) | 9 mm | 8 mm | 24 mm | 13 mm | 7 mm | 22 mm | 13 mm | 10 mm | 7 mm | 18 mm | 30 mg/L (≈ 99.2 µM) | 14 mm | 14 mm | 250 mg/L (≈ 827 µM) | 10 mm | 8 mm | 13 mm | 11 mm | 17 mm | 15 mm | MIC (Pseudomonas fluorescens [21]): 30 mg/L (≈ 99.2 µM); MIC (Escherichia coli [22]): 40 mg/L (≈ 132 µM); MIC (Bacillus pumilus [23]): 30 mg/L (≈ 99.2 µM); zone of inhibition at 500 µg/mL (Staphylococcus aureus [24]): 8 mm; MIC (Aspergillus niger [25]): 250 mg/L (≈ 827 µM); zone of inhibition at 1000 µg/mL (Bacillus subtilis [26]): 20 mm; zone of inhibition at 100 µg/mL (Pseudomonas fluorescens [27]): 8 mm; zone of inhibition at 1250 µg/mL (Bacillus pumilus [28]): 25 mm; MIC (Penicillium chrysogenum [29]): 250 mg/L (≈ 827 µM); growth inhibition (GI) (Penicillium chrysogenum [30]): inactive; growth inhibition (GI) (Aspergillus niger [31]): inactive; zone of inhibition at 500 µg/mL (Micrococcus luteus [32]): 12 mm; zone of inhibition at 250 µg/mL (Micrococcus luteus [33]; MTCC 1538, 48 h, read-out: DIZ): 10 mm; zone of inhibition at 1250 µg/mL (Micrococcus luteus [34]): 19 mm; zone of inhibition at 750 µg/mL (Escherichia coli [35]): 15 mm; zone of inhibition at 1250 µg/mL (Bacillus subtilis [36]): 22 mm; zone of inhibition at 250 µg/mL (Pseudomonas aeruginosa [37]): 11 mm; MIC (Micrococcus luteus [38]): 40 mg/L (≈ 132 µM); zone of inhibition at 500 µg/mL (Bacillus pumilus [39]): 12 mm |
